# Assay: Oral absorbability of cefditoren pivoxil suspensions in dogs
# Type: in vivo
# Conditions: suspension of crystals as compared to an amorphous suspension
# Text: On the other hand, since amorphous cefditoren pivoxil is apt to change into a crystalline state in a solution, an antibiotic pharmaceutical composition comprising amorphous cefditoren pivoxil still needs to be improved.
structure (smiles),measurement,value
"CO/N=C(\C(=O)N[C@@H]1C(=O)N2C(C(=O)OCOC(=O)C(C)(C)C)=C(/C=C\c3scnc3C)CS[C@H]12)c1csc(N)n1 [cefditoren pivoxil, (−)-(6R,7R)-7-[(Z)-2-(2-aminothiazol-4-yl)-2-methoxyiminoacetamido]-3-[(Z)-2-(4-methylthiazol-5-yl)ethenyl]-8-oxo-5-thia-1-azabicyclo[4.2.0]oct-2-ene-2-carboxylic acid 2,2-dimethylpropionyloxymethyl ester]",Oral absorbability in dogs (in words),extremely low oral absorbability

# Reference: patent US8648065B2, “Antibacterial medicinal composition of enhanced oral absorptivity” (Meiji Seika Pharma Co., Ltd., priority 2002, dated 2014)
